Test results: US8053599B2, “Drug containing (2R)-2-propyloctanoic acid as the active ingredient” (Ono Pharmaceutical Co., Ltd., priority 2003, dated 2011)

Experiments:
[1] = solubility and behaviour in water; format: physicochemical
From the text: The present inventors have attempted to prepare a medicament comprising (2R)-2-propyloctanoic acid or a salt thereof in a high concentration, which is useful for the treatment of neurodegenerative diseases including cerebral infarction, and which can be formulated to an injection which can be conveniently administered to a patient, if necessary, by means of the dissolution or dilution operation. […] The inventors have conducted studies to solve these problems and have found as a result that (2R)-2-propyloctanoic acid can be dissolved in water in a high concentration by mixing it with a strong alkali such as sodium hydroxide. […] Moreover, the solution in a high concentration was difficult to be stored for a long period of time because of the appearance of insoluble allotrio within the solution under long-term storage in conventional glass containers. Thus, there are problems in using a drug which is sensitive to a change in the drug concentration or in the pH of the solution, leading to a change such as clouding. That is, there is in fact the risk of clouding of the drug, upon preparing an injection which can be administered to a patient, by direct manipulation of a person involved in medical services, for combined use with other agents, or during the action of intravascular administration to a patient. […]

[2] = test system: dog; assay: single intravenous administration toxicity using a dog; format: in vivo; settings: dose of 100 mg/kg
[3] = confirmation test of micelle formation (fat staining with Sudan III, absorbance of supernatant); format: physicochemical
From the text: The fat staining method includes, for example, a method of mixing a solution of a fat-soluble dye (for example, Sudan III, piacyanol chloride, Rhodamine 6G, etc.) with the solution under test, followed by centrifugation after a certain period of time, and measuring the absorbance of the supernatant which is inherent to the fat-soluble dye used. If the absorbance of the supernatant can be measured according to this test method, it implies that the fat-soluble dye is present within micelles, that is, micelles have been formed, and thus it is possible to determine that a micelle water dispersion liquid has been formed. It is also possible to define the critical concentration of micelle formation, that is, a critical micelle concentration (CMC), by means of such a test.
The critical micelle concentration cannot be exactly determined since it depends on the substance forming micelles, the type of co-existing ions and the concentration thereof, the ionic strength, and even on temperature. […]
Into a spitz made of glass, the Sudan III solution prepared in the above (2) (400 μL) was added, and ethanol was evaporated Each of the (2R)-2-propyloctanoic acid solutions of various concentrations prepared in the above (1) was added thereto, and the mixture was subjected to sonication and stirring. […] The absorbance of the supernatant was measured at a wavelength of 502 nm.

Row | Compound | pH and clouding of solution in water ([1]; dissolved in water) | solubility in water ([1]; water) | death after single intravenous administration [2] | critical micelle concentration ([3]; aqueous medicament comprising about 1 to about 5 equivalents of basic sodium ion based on 1 equivalent of (2R)-2-propyloctanoic acid, room temperature) [mg/mL] | concentration at which micelle formation occurred ([3]; aqueous solution with trisodium phosphate dodecahydrate, Sudan III, left at room temperature for 1 day, absorbance at 502 nm)
1 | CCCCCC[C@@H](CCC)C(=O)[O-].[Na+] [(2R)-2-propyloctanoic acid-sodium salt] | has a high pH and is susceptible to clouding under slight fluctuations of the pH |  |  |  | 
2 | CCCCCC[C@@H](CCC)C(=O)O [(2R)-2-propyloctanoic acid] |  | insoluble and immiscible in water | did not result in death | 20 to 25 | about 20 mg/mL
